Test results published in US11547704B2, “Chemical compounds” (GlaxoSmithKline Intellectual Property Development Limited, priority 2016, dated 2023).

Each molecule was assayed on ATF4 translation (assay: ATF4 cell based assay (ATF4 reporter assay, NanoLuc luciferase fused to 5'-UTR of ATF4)). Details: SH-SY5Y-ATF4-NanoLuc cells challenged with Thapsigargin for 14-18 hours; average of a set of two or more experimental runs; read-out: average ATF4 pathway inhibitory activity (IC50).
Source text: The ATF4 reporter assay measures the effect of Thapsigargin induced cellular stress on ATF4 expression. For this reporter assay, a stable cell line was created by transfecting SH-SY5Y cells with a plasmid containing the NanoLuc® luciferase gene fused to the 5′-UTR of ATF4, under the control of the CMV promoter. The ATF4 5′-UTR contains two open reading frames which mediate the cellular stress-dependent translation of the reporter gene. Clones stably expressing the reporter construct were isolated and selected based on the luminescence response to thapsigargin and inhibition of this signal by test compounds. Briefly, SH-SY5Y-ATF4-NanoLuc cells were challenged with Thapsigargin for 14-18 hours to determine the stress effect with or without test compounds. Cells were propagated in growth media consisting of 90% DMEM F12 (InVitrogen #11320-033), 10% Fetal Bovine Serum (Gibco #10438-026), 5 mM Glutamax (Gibco #35050-061), 5 mM Hopes, (Gibco #15630-080), and 0.5 mg/ml Geneticin (Gibco #10131-027). Cells were prepared for the assay by removing all media from cells, washing the plated cells with phosphate buffered saline, and detached by adding a solution comprised of 10% Tryple express solution (InVitrogen 12604-021) and 90% enzyme-free cell dissociation buffer HANKS base (Gibco 13150-016). The trypsin was deactivated by adding assay media comprised of 90% phenol-red free DMEM F12 (InVitrogen, 11039), 10% Fetal Bovine Serum (Gibco #10438-026), (5 mM Glutamax (Gibco #35050-061), mM Hopes, (Gibco #15630-080), and 0.5 mg/ml Geneticin (Gibco #10131-027). Suspended cells were spun down at 300 g for 5 min, the supernatant was removed and the cell pellet was suspended in warm media (30-37° C.) comprised as above at (1e6 cell/ml). Assay plates were prepared by adding 250 nL of compound stock solution in 100% DMSO to each well, followed by dispensing 20 microliters/well cell suspension to deliver 15-20 k cell/well. Cells were incubated for 1 hour at 37° C. Then, 5 μL of 1.5 μM or 1 μM of Thapsigargin (final concentration: 200-300 nM) was added to each well of cells. Assay plates containing cells were incubated for 14-18 hours at 37° C. The measurement of luciferase produced by the ATF4 constructs was measured as follows. Aliquots of the Nano-Glo reagent (Nano-Glo® Luciferase Assay Substrate, Promega, N113, Nano-Glo® Luciferase Assay Buffer, Promega, N112 (parts of Nano-Glo® Luciferase Assay System, N1150) were brought to room temperature, the substrate and buffer were mixed according to manufacturer's instructions. The cell plates were equilibrated to room temperature. 25microliters/well of the mixed Nano-Glo reagent were dispensed into assay wells and pulse spun to settle contents and the plate was sealed with film. The plates were incubated at room temperature for 1 hour before detecting luminescence on an Envision plate reader.
Molecule `O=C(COc1ccc(Cl)cc1)NC1CCN(CCCOc2ccc(Cl)cc2)CC1` [Example 2, 2-(4-chlorophenoxy)-N-(1-(3-(4-chlorophenoxy)propyl)piperidin-4-yl)acetamide] has an IC50 of less than 4000 nM.
Molecule `O=C(COc1ccc(Cl)cc1)NC1CCN(CC(O)COc2ccc(Cl)cc2)CC1` (centres unmarked) [Example 11, 2-(4-chlorophenoxy)-N-(1-(3-(4-chlorophenoxy)-2-hydroxypropyl)piperidin-4-yl)acetamide] has an IC50 of 32 nM.
`O=C(COc1ccc(Cl)cc1)NC1CCN(CCCOc2ccc(Cl)nc2)CC1` [Example 17, 2-(4-chlorophenoxy)-N-(1-(3-((6-chloropyridin-3-yl)oxy)propyl)piperidin-4-yl)acetamide] showed an IC50 of 76.8 nM.
In the case of `O=C(NCCc1ccc(Cl)cc1)C1CCN(C(=O)COc2ccc(Cl)cc2)CC1` [Example 24, N-(4-chlorophenethyl)-1-(2-(4-chlorophenoxy)acetyl)piperidine-4-carboxamide], the IC50 is reported as 201 nM.
With `O=C(COc1ccc(Cl)cc1)NC1CCCN(C(=O)COc2ccc(Cl)cc2)C1` (centres unmarked) [Example 27, 2-(4-chlorophenoxy)-N-(1-(2-(4-chlorophenoxy)acetyl)piperidin-3-yl)acetamide] the IC50 was greater than 1000 nM.
`O=C(COc1ccc(Cl)cc1)NCCC1CCCN(C(=O)COc2ccc(Cl)cc2)C1` (centres unmarked) [Example 28, 2-(4-chlorophenoxy)-N-(2-(1-(2-(4-chlorophenoxy)acetyl)piperidin-3-yl)ethyl)acetamide] was tested, and the IC50 was less than 1000 nM.
`O=C(COc1ccc(Cl)nc1)NCC1CCCN(C(=O)COc2ccc(Cl)cc2)C1` (centres unmarked) [Example 29, N-((1-(2-(4-chlorophenoxy)acetyl)piperidin-3-yl)methyl)-2-((6-chloropyridin-3-yl)oxy)acetamide] was tested, and the IC50 was greater than 1000 nM.
Work on `O=C(COc1ccc(Cl)cc1)NC1CCN(C(=O)COc2ccc(Cl)cc2)CC1F` (centres unmarked) [Example 30, 2-(4-chlorophenoxy)-N-(1-(2-(4-chlorophenoxy)acetyl)-3-fluoropiperidin-4-yl)acetamide] yielded an IC50 of 110 nM.
`O=C(COc1ccc(Cl)cc1)NC1CCN(C(=O)CCCc2ccc(Cl)cc2)CC1` [Example 37, 2-(4-chlorophenoxy)-N-(1-(4-(4-chlorophenyl)butanoyl)piperidin-4-yl)acetamide] was tested, and the IC50 was 98.7 nM.
`O=C(NCCOc1ccc(Cl)cc1)C1CCN(CCOc2ccc(Cl)cc2)CC1` [Example 39, N,1-bis(2-(4-chlorophenoxy)ethyl)piperidine-4-carboxamide] gave an IC50 greater than 1000 nM.
For `O=C(NCCOc1ccc(Cl)cc1)C1CCN(CCCOc2ccc(Cl)cc2)CC1` [Example 40, N-(2-(4-chlorophenoxy)ethyl)-1-(3-(4-chlorophenoxy)propyl)piperidine-4-carboxamide], the IC50 was greater than 1000 nM.
Work on `O=C(COc1ccc(Cl)nc1)NC1CCN(CCCOc2ccc(Cl)cc2)CC1` [Example 43, N-(1-(3-(4-chlorophenoxy)propyl)piperidin-4-yl)-2-((6-chloropyridin-3-yl)oxy)acetamide] yielded an IC50 of 58.4 nM.
Molecule `O=C(COc1ccc(Cl)cc1)NCC1CCN(CCCOc2ccc(Cl)cc2)CC1` [Example 49, 2-(4-chlorophenoxy)-N-((1-(3-(4-chlorophenoxy)propyl)piperidin-4-yl)methyl)acetamide] has an IC50 greater than 1000 nM.
`O=C(COc1ccc(Cl)cc1)NC1CCN(CCOc2ccc(Cl)cc2)CC1F` (centres unmarked) [Example 50, 2-(4-chlorophenoxy)-N-(1-(2-(4-chlorophenoxy)ethyl)-3-fluoropiperidin-4-yl)acetamide] gave an IC50 of 93.9 nM.
With `O=C(COc1ccc(C2CC2)cc1)NC1CCN(CCCOc2ccc(Cl)cc2)CC1` [Example 56, N-(1-(3-(4-chlorophenoxy)propyl)piperidin-4-yl)-2-(4-cyclopropylphenoxy)acetamide] the IC50 was greater than 1000 nM.
Molecule `CN(C(=O)COc1ccc(Cl)cc1)C1CCN(CCCOc2ccc(Cl)cc2)CC1` [Example 57, 2-(4-chlorophenoxy)-N-(1-(3-(4-chlorophenoxy)propyl)piperidin-4-yl)-N-methylacetamide] has an IC50 of 61.2 nM.
In the case of `O=C(COc1ccc(Cl)cc1)NC1CCN(CCCOc2ccc(Cl)cc2)C(C(=O)O)C1` (centres unmarked) [Example 59, 4-(2-(4-chlorophenoxy)acetamido)-1-(3-(4-chlorophenoxy)propyl)piperidine-2-carboxylic acid], the IC50 is reported as 172 nM.
